According to patent publication US9603896B2, “Peptide compounds and methods of production and use thereof” (priority 2012, dated 2017):
Square brackets hold non-standard residues; d marks the D form. Ends that are not written are not given here. Peptide text beside a SMILES is read from it. AEEA = NCCOCCOCC(=O)O

Key:
[1] = tested on: Acinetobacter baumannii ATCC® BAA-747™; assay: In vitro bactericidal assay (CFU remaining, log reduction); type: cell-based; conditions: for reduction of CFU/ml: 60 minutes, highest peptide concentrations (25 μM)
Description: (§1) The three peptide compounds BCC01-5RMP (SEQ ID NO:21), BCC02-5RMP (SEQ ID NO:22), and BCC03-5RMP (SEQ ID NO:23) were assayed for in vitro bactericidal activity against Pseudomonas aeruginosa, Escherichia coli, Salmonella typhimurium, and Acinetobacter baumannii. The starting inoculum for all experiments was 1×10^6 colony forming units (CFU)/ml. The CFU remaining at the end of 60 to 180 minute incubation was determined, and the data plotted as a log reduction in CFU/ml.
(§2) For FIGS. 10-13, in vitro bactericidal assays were performed using a starting inoculum of 1×10^6 CFU/ml of the bacterial suspension. The CFU remaining at the end of the 60-180 minute incubation was determined, and the data was plotted as log reduction in CFU/ml.
(§3) In particular, each of the test peptides (CAP37 peptides 120-146WR, 120-146WH, and 95-122 (SEQ ID NOs: 30, 31, and 26, respectively)) was used at 25, 12.5, 6.25, and 3.12 μM. Gentamicin was used at 4 μg/ml. 1×10^6/ml Acinetobacter baumannii ATCC® BAA-747″ or Pseudomonas aeruginosa ATCC® 27853™ (American Type Culture Collection, Manassas, Va.) were incubated with the peptides, negative buffer control (tryptone saline), and positive control gentamicin at pH 5.5 or 7.2. A 60 minute incubation was used for Acinetobacter baumannii ATCC® BAA747™, while a 180 minute incubation was used for Pseudomonas aeruginosa ATCC® 27853™. 50 μl aliquots were plated out on agar plates and incubated overnight. Colony forming units were counted after overnight incubation and CFU/ml calculated.

[2] = tested on: P. aeruginosa (ATCC® 27853™); assay: Pseudomonas keratitis model in the mouse eye; type: in vivo
Description: A circular wound was created on the mouse cornea by removing the epithelium and infected with 10^5 colony forming units (CFU) of P. aeruginosa (ATCC® 27853™ (American Type Culture Collection, Manassas, Va.)). Infected wounds were treated with saline (0.9% sodium chloride, vehicle control) or saline containing indicated concentrations of peptide every 15 minutes for 2 hours, then every 30 minutes for 3 hours on the first day. Infected wounds were treated twice on the second day and once on the third day. Mice were killed at 48 hours post-infection, and CFU/eye were quantified. The means were plotted and are representative of 5 to 9 mice per group. Mann Whitney test was performed for each group as compared to the saline control group. *P=0.014.
A circular wound (2 mm) was created on the mouse cornea by removing the epithelium and infecting the wound with 10^5 CFU of P. aeruginosa (ATCC® 27853™ (American Type Culture Collection, Manassas, Va.)). Infected wounds were treated with saline or saline containing indicated concentrations of peptide every 15 minutes for 2 hours, then every 30 minutes for 3 hours on the first day. Infected wounds were treated twice on the second day and once on the third day. Mice were killed at 48 hours post-infection, and the colony forming units per eye (CFU/eye) were quantified. The means are plotted and are representative of 5 to 9 mice per group. Mann Whitney test was performed for each group as compared to the saline control group.
For FIGS. 15-17, in vivo bactericidal activity of the peptides was also investigated using the standard Pseudomonas keratitis model in the mouse eye (FIGS. 15-17). Peptides 120-146QR-5RMP (SEQ ID NO:32), 120-146WH (SEQ ID NO:31), and 120-146WR (SEQ ID NO: 30) were applied topically at doses of 2, 5, 10, and 20 mg/ml to the wounded cornea that had been infected with 10^5 CFU of Pseudomonas aeruginosa. The efficacies of the peptides were compared to treatment with the vehicle control. Mice were euthanized at 48 hours post infection, and the CFU/eye were quantified.

[3] = tested on: Pseudomonas aeruginosa ATCC® 27853™; type: cell-based
Description: as §1, with “The starting inoculum for all experiments was 1×10^6 colony forming units (CFU)/ml.” left out
Tables 4-6 show the results of various peptides and peptide compounds against P. aeruginosa and E. coli strains. Tables 4 and 5 show the results of an investigation of the effects of peptide or peptide compounds BCC03-5RMP (SEQ ID NO:23), BCC03-MP (SEQ ID NO:24) and BCC03-5R (SEQ ID NO:20) against P. aeruginosa ATCC® strain 27853™ and E. coli ATCC® strain 25922™ (American Type Culture Collection, Manassas, Va.). […] Table 6 compares the activity of several other compounds, including the “5R” versions of BCC01, i.e., SEQ ID NO:18 (which comprises SEQ ID NO:1 with five additional arginines), the “5R” version of BCC02 (i.e., SEQ ID NO:19, which comprises SEQ ID NO:2 with five additional arginines), and BCC03-5RMP (SEQ ID NO:23), and BCC03-MP (SEQ ID NO:24, i.e., without the five additional R residues). The data generally indicate the superiority of BCC03-5RMP (SEQ ID NO:23) against E. coli, and the superiority of the 5R or 5RMP versions of the peptide over the “AEEA only” peptide against P. aeruginosa.
as §2, §3
For FIG. 14, 1×10^6/ml Pseudomonas aeruginosa ATCC® 27853™ were incubated with each of the test peptides (CAP37 peptides 120-146WR, 120-146WH, 120-146QR, 120-146QH, 120-146QR-5RMP, and 120-146QH-5RMP (SEQ ID NOs: 30, 31, 28, 29, 32, and 33, respectively)) at 150, 75, and 37.5 μg/ml, or negative buffer control (tryptone saline), for 180 minutes at pH 5.5. 50 μl aliquots were plated out on agar plates and incubated overnight. Colony forming units were counted after overnight incubation and CFU/ml calculated.

Compound | activity against A. baumannii ([1]; 12.5 μM) | activity against A. baumannii ([1]; 25 μM) | reduction of CFU/ml ([1]; pH 5.5) | reduction of CFU/ml ([1]; pH 7.2) | infection (CFU/eye) at 48 hours post infection vs saline ([2]; topical, 5, 10, and 20 mg/ml) | activity against P. aeruginosa ([3]; 120-146WR at 25 μM, gentamicin 4 μg/ml) | reduction of CFU (FIG. 14) ([3]; pH 5.5, 180 minutes, highest concentrations (150 μg/ml)) | reduction of CFU/ml ([3]; pH 7.2, 180 minutes, highest concentrations of peptides (25 μM)) | bactericidal activity against Pseudomonas aeruginosa ([3]; pH 7.2, 180 minutes, peptides at 25 μM) | mice with no viable bacteria in the eye after treatment ([2]; 10 and 20 mg/ml groups together) | CFU/eye at 48 hours post infection vs saline ([2]; topical, doses of 10 and 20 mg/ml) | reduction in CFU (FIG. 14) ([3]; pH 5.5, 180 minutes, 75 μg/ml)
GTRCQVAGWGSWRSGGRLSRFPRFVNV [Peptide 120-146WR] | highly active | highly active | ~4 logs | ~5.5 logs | significantly reduced infection | highly active | 6 logs | 6 logs | as effective as the standard antibiotic gentamicin |  |  | 
CC(C)C[C@H](NC(=O)[C@H](CCCNC(=N)N)NC(=O)CNC(=O)CNC(=O)[C@H](CO)NC(=O)[C@H](CCCNC(=N)N)NC(=O)[C@H](CCC(N)=O)NC(=O)[C@H](CO)NC(=O)CNC(=O)[C@H](Cc1c[nH]c2ccccc12)NC(=O)CNC(=O)[C@H](C)NC(=O)[C@@H](NC(=O)[C@H](CCC(N)=O)NC(=O)[C@H](CS)NC(=O)[C@H](CCCNC(=N)N)NC(=O)[C@@H](NC(=O)CNC(=O)[C@H](CCCNC(=N)N)NC(=O)[C@H](CCCNC(=N)N)NC(=O)[C@H](CCCNC(=N)N)NC(=O)[C@H](CCCNC(=N)N)NC(=O)COCCOCCNC(=O)COCCOCCN)[C@@H](C)O)C(C)C)C(=O)N[C@@H](CO)C(=O)N[C@@H](CCCNC(=N)N)C(=O)N[C@@H](Cc1ccccc1)C(=O)N1CCC[C@H]1C(=O)N[C@@H](CCCNC(=N)N)C(=O)N[C@@H](Cc1ccccc1)C(=O)N[C@H](C(=O)N[C@@H](CC(N)=O)C(=O)N[C@H](C(=O)N[C@@H](CCCNC(=N)N)C(=O)O)C(C)C)C(C)C [120-146QR-5RMP] (H-[AEEA][AEEA]RRRRGTRCQVAGWGSQRSGGRLSRFPRFVNVR-OH) |  |  |  |  |  |  |  |  |  | Six of the 10 | significantly reduced the CFU/eye | ~6 log
